# Reference: patent US20160264593A1 (priority 2013, published 2016)
# “And” between values parts separate entries of the source, which are not always exact repeats. Equal entries are not always repeated. “Also recorded” adds a separate entry of the source.
# Assay: Pharmacokinetic study of 100 (and metabolite endothal) in SD rats, iv; plasma, liver, brain
# Details: for Endothal brain concentration / Endothal liver concentration / Endothal plasma concentration / concentration at 0.25 h / concentration at 1 h / concentration at 2 h / concentration at 10 h / concentration at 24 h / concentration at 6 h: SD rats; for AUCINF / AUClast / Cmax / Tmax / concentration at 0.25 h / concentration at 1 h / concentration at 2 h / concentration at 10 h / concentration at 24 h / concentration at 6 h: rat, in vivo, iv; for concentration at 0.25 h / concentration at 1 h / concentration at 2 h / concentration at 10 h / concentration at 24 h / concentration at 6 h: Endothal liver concentration
# Experimental: 100 was administrated via iv route at 0.5, 1.0 and 1.5 mg/kg into SD rats. The blood, liver and brain tissue samples were collected at predetermined times from rats.
# Twelve (12) female SD rats per group were dosed by iv with 100. The rats were fasted overnight prior to dosing, with free access to water. Foods were withheld for 2 hours post-dose. Blood, liver and brain tissue samples in two animals each group were collected at each time point, within 10% of the scheduled time for each time point. Two extra animals were used for analytic method development. Blood (>0.3 mL) were collected via aorta abdominalis in anaesthetic animalsinto tubes containing heparin at 15 min, 1, 2, 6, 10 and 24 hours after iv administration. Liver and brain tissues were collected immediately after animal death. The liver and brain tissues were excised and rinsed with cold saline to avoid blood residual. Upon collection, each sample was placed on ice and the blood samples were subsequently centrifuged (4° C., 11000 rpm, 5 min) to separate plasma. The obtained plasma, liver and brain tissue samples were stored at −70° C. until LC-MS/MS analysis.
# AUC0-∞ (AUC/NF) is the area under the plasma concentration-time curve with last concentration extrapolated based on the elimination rate constant.
# [1] = 100 iv 0.5 mg/kg, 24 hr, individual
smiles,measurement,setting,value
"O=C(O)C1C2CCC(O2)C1C(=O)O (stereo not shown) [Endothal, 7-oxabicyclo[2.2.1]heptane-2,3-dicarboxylic acid]",Endothal brain concentration,"100 iv 0.5 mg/kg, 0.25 hr, individual",BLQ
same,Endothal liver concentration,"100 iv 0.5 mg/kg, 0.25 hr, individual, 0.5 mg/kg",382 ng/g
same,Endothal brain concentration,"100 iv 0.5 mg/kg, 0.25 hr, mean",BLQ
same,Endothal brain concentration,"100 iv 0.5 mg/kg, 1 hr, individual",BLQ
same,Endothal liver concentration,"100 iv 0.5 mg/kg, 1 hr, individual, 0.5 mg/kg",131 ng/g
same,Endothal brain concentration,"100 iv 0.5 mg/kg, 1 hr, mean",BLQ
same,Endothal brain concentration,"100 iv 0.5 mg/kg, 2 hr, individual",BLQ
same,Endothal liver concentration,"100 iv 0.5 mg/kg, 2 hr, individual, 0.5 mg/kg",273 ng/g
same,Endothal brain concentration,"100 iv 0.5 mg/kg, 2 hr, mean",BLQ
same,Endothal brain concentration,"100 iv 0.5 mg/kg, 6 hr, individual",BLQ
same,Endothal plasma concentration,"100 iv 0.5 mg/kg, 6 hr, individual, 0.5 mg/kg",BLQ
same,Endothal brain concentration,"100 iv 0.5 mg/kg, 6 hr, mean",BLQ
same,Endothal brain concentration,"100 iv 0.5 mg/kg, 10 hr, individual",BLQ
same,Endothal brain concentration,"100 iv 0.5 mg/kg, 10 hr, mean",BLQ
same,Endothal brain concentration,[1],BLQ
same,Endothal plasma concentration,[1],BLQ
same,Endothal liver concentration,"100 iv 0.5 mg/kg, 24 hr, individual, 0.5 mg/kg",36.4 ng/g
same,Endothal brain concentration,"100 iv 0.5 mg/kg, 24 hr, mean",BLQ
same,Endothal plasma concentration,"100 iv 0.5 mg/kg, 24 hr, mean",BLQ
same,Endothal brain concentration,"100 iv 1.0 mg/kg, 0.25 hr, individual",BLQ
same,Endothal liver concentration,"100 iv 1.0 mg/kg, 0.25 hr, individual, 1 mg/kg",1320 ng/g
same,Endothal brain concentration,"100 iv 1.0 mg/kg, 0.25 hr, mean",BLQ
same,Endothal brain concentration,"100 iv 1.0 mg/kg, 1 hr, individual",BLQ
same,Endothal liver concentration,"100 iv 1.0 mg/kg, 1 hr, individual, 1 mg/kg",1380 ng/g and 618 ng/g
same,Endothal brain concentration,"100 iv 1.0 mg/kg, 1 hr, mean",BLQ
same,Endothal brain concentration,"100 iv 1.0 mg/kg, 2 hr, individual",BLQ
same,Endothal liver concentration,"100 iv 1.0 mg/kg, 2 hr, individual, 1 mg/kg",1530 ng/g and 542 ng/g
same,Endothal brain concentration,"100 iv 1.0 mg/kg, 2 hr, mean",BLQ
same,Endothal brain concentration,"100 iv 1.0 mg/kg, 6 hr, individual",BLQ
same,Endothal liver concentration,"100 iv 1.0 mg/kg, 6 hr, individual, 1 mg/kg",241 ng/g
same,Endothal brain concentration,"100 iv 1.0 mg/kg, 6 hr, mean",BLQ
same,Endothal brain concentration,"100 iv 1.0 mg/kg, 10 hr, individual",BLQ
same,Endothal liver concentration,"100 iv 1.0 mg/kg, 10 hr, individual, 1 mg/kg",94.2 ng/g
same,Endothal brain concentration,"100 iv 1.0 mg/kg, 10 hr, mean",BLQ
same,Endothal brain concentration,"100 iv 1.0 mg/kg, 24 hr, individual",BLQ
same,Endothal liver concentration,"100 iv 1.0 mg/kg, 24 hr, individual, 1 mg/kg",115 ng/g
same,Endothal brain concentration,"100 iv 1.0 mg/kg, 24 hr, mean",BLQ
same,Endothal brain concentration,"100 iv 1.5 mg/kg, 0.25 hr, individual",BLQ
same,Endothal liver concentration,"100 iv 1.5 mg/kg, 0.25 hr, individual, 1.5 mg/kg",2160 ng/g
same,Endothal brain concentration,"100 iv 1.5 mg/kg, 0.25 hr, mean",BLQ
same,Endothal brain concentration,"100 iv 1.5 mg/kg, 1 hr, individual",BLQ
same,Endothal liver concentration,"100 iv 1.5 mg/kg, 1 hr, individual, 1.5 mg/kg",2976 ng/g
same,Endothal brain concentration,"100 iv 1.5 mg/kg, 1 hr, mean",BLQ
same,Endothal brain concentration,"100 iv 1.5 mg/kg, 2 hr, individual",BLQ
same,Endothal liver concentration,"100 iv 1.5 mg/kg, 2 hr, individual, 1.5 mg/kg",2226 ng/g
same,Endothal brain concentration,"100 iv 1.5 mg/kg, 2 hr, mean",BLQ
same,Endothal brain concentration,"100 iv 1.5 mg/kg, 6 hr, individual",BLQ
same,Endothal liver concentration,"100 iv 1.5 mg/kg, 6 hr, individual, 1.5 mg/kg",1326 ng/g
same,Endothal brain concentration,"100 iv 1.5 mg/kg, 6 hr, mean",BLQ
same,Endothal brain concentration,"100 iv 1.5 mg/kg, 10 hr, individual",BLQ
same,Endothal liver concentration,"100 iv 1.5 mg/kg, 10 hr, individual, 1.5 mg/kg",137 ng/g and 329 ng/g
same,Endothal brain concentration,"100 iv 1.5 mg/kg, 10 hr, mean",BLQ
same,Endothal brain concentration,"100 iv 1.5 mg/kg, 24 hr, individual",BLQ
same,Endothal liver concentration,"100 iv 1.5 mg/kg, 24 hr, individual, 1.5 mg/kg",52.1 ng/g
same,Endothal brain concentration,"100 iv 1.5 mg/kg, 24 hr, mean",BLQ
same,endothal detectable in brain samples,"after single iv 100 at 0.5, 1.0 and 1.5 mg/kg",not detectable; also recorded: undetectable
same,AUCINF,"female, SD, 0.5 mg/kg",828 ng·h/mL
same,AUClast,"female, SD, 0.5 mg/kg",546 ng·h/mL
same,Cmax,"female, SD, 0.5 mg/kg",577 ng/mL
same,Tmax,"female, SD, 0.5 mg/kg",15 min
same,concentration at 0.25 h,"female, SD, 0.5 mg/kg, 100 iv 0.5 mg/kg, 0.25 hr, individual",316 ng/g
same,concentration at 0.25 h,"female, SD, 0.5 mg/kg, 100 iv 0.5 mg/kg, 0.25 hr, mean",349 ng/g
same,concentration at 1 h,"female, SD, 0.5 mg/kg, 100 iv 0.5 mg/kg, 1 hr, individual",256 ng/g
same,concentration at 1 h,"female, SD, 0.5 mg/kg, 100 iv 0.5 mg/kg, 1 hr, mean",194 ng/g
same,concentration at 2 h,"female, SD, 0.5 mg/kg, 100 iv 0.5 mg/kg, 2 hr, individual",168 ng/g
same,concentration at 2 h,"female, SD, 0.5 mg/kg, 100 iv 0.5 mg/kg, 2 hr, mean",220 ng/g
same,concentration at 10 h,"female, SD, 0.5 mg/kg, 100 iv 0.5 mg/kg, 10 hr, mean",124 ng/g
same,concentration at 24 h,"female, SD, 0.5 mg/kg, 100 iv 0.5 mg/kg, 24 hr, individual",32 ng/g
same,concentration at 24 h,"female, SD, 0.5 mg/kg, 100 iv 0.5 mg/kg, 24 hr, mean",34.2 ng/g
same,AUCINF,"female, SD, 1 mg/kg",2750 ng·h/mL
same,AUClast,"female, SD, 1 mg/kg",2487 ng·h/mL
same,Tmax,"female, SD, 1 mg/kg",15 min
same,concentration at 0.25 h,"female, SD, 1 mg/kg, 100 iv 1.0 mg/kg, 0.25 hr, individual",768 ng/g
same,concentration at 0.25 h,"female, SD, 1 mg/kg, 100 iv 1.0 mg/kg, 0.25 hr, mean",1040 ng/g
same,concentration at 1 h,"female, SD, 1 mg/kg, 100 iv 1.0 mg/kg, 1 hr, mean",999 ng/g
same,concentration at 2 h,"female, SD, 1 mg/kg, 100 iv 1.0 mg/kg, 2 hr, mean",1040 ng/g
same,concentration at 6 h,"female, SD, 1 mg/kg, 100 iv 1.0 mg/kg, 6 hr, individual",298 ng/g
same,concentration at 6 h,"female, SD, 1 mg/kg, 100 iv 1.0 mg/kg, 6 hr, mean",270 ng/g
same,concentration at 10 h,"female, SD, 1 mg/kg, 100 iv 1.0 mg/kg, 10 hr, individual",151 ng/g
same,concentration at 10 h,"female, SD, 1 mg/kg, 100 iv 1.0 mg/kg, 10 hr, mean",123 ng/g
same,concentration at 24 h,"female, SD, 1 mg/kg, 100 iv 1.0 mg/kg, 24 hr, individual",66.6 ng/g
same,concentration at 24 h,"female, SD, 1 mg/kg, 100 iv 1.0 mg/kg, 24 hr, mean",90.8 ng/g
same,AUCINF,"female, SD, 1.5 mg/kg",4730 ng·h/mL
same,AUClast,"female, SD, 1.5 mg/kg",4476 ng·h/mL
same,Tmax,"female, SD, 1.5 mg/kg",15 min
same,concentration at 0.25 h,"female, SD, 1.5 mg/kg, 100 iv 1.5 mg/kg, 0.25 hr, individual",2300 ng/g
same,concentration at 0.25 h,"female, SD, 1.5 mg/kg, 100 iv 1.5 mg/kg, 0.25 hr, mean",2230 ng/g
same,concentration at 1 h,"female, SD, 1.5 mg/kg, 100 iv 1.5 mg/kg, 1 hr, individual",2870 ng/g
same,concentration at 1 h,"female, SD, 1.5 mg/kg, 100 iv 1.5 mg/kg, 1 hr, mean",2920 ng/g
same,concentration at 2 h,"female, SD, 1.5 mg/kg, 100 iv 1.5 mg/kg, 2 hr, individual",2950 ng/g
same,concentration at 2 h,"female, SD, 1.5 mg/kg, 100 iv 1.5 mg/kg, 2 hr, mean",2590 ng/g
same,concentration at 6 h,"female, SD, 1.5 mg/kg, 100 iv 1.5 mg/kg, 6 hr, individual",1690 ng/g
same,concentration at 6 h,"female, SD, 1.5 mg/kg, 100 iv 1.5 mg/kg, 6 hr, mean",1510 ng/g
same,concentration at 10 h,"female, SD, 1.5 mg/kg, 100 iv 1.5 mg/kg, 10 hr, mean",233 ng/g
same,concentration at 24 h,"female, SD, 1.5 mg/kg, 100 iv 1.5 mg/kg, 24 hr, individual",75 ng/g
same,concentration at 24 h,"female, SD, 1.5 mg/kg, 100 iv 1.5 mg/kg, 24 hr, mean",63.5 ng/g
same,Cmax,"female, Sprague-Dawley, 1.5 mg/kg",349 to 2960 ng/g
same,AUCINF,0.5 mg/kg,3095 ng·h/g
same,AUClast,0.5 mg/kg,2598 ng·h/g
same,AUCINF,1 mg/kg,7370 ng·h/g
same,AUClast,1 mg/kg,6673 ng·h/g
same,AUCINF,1.5 mg/kg,18850 ng·h/g
same,AUClast,1.5 mg/kg,18434 ng·h/g
